Our source for the Activity values is ChEMBL document CHEMBL3813616, “Discovery of novel 7-azaindoles as PDK1 inhibitors” (Bioorg Med Chem Lett, 2016).

The structures appear in SMILES notation.

Holding throughout (set-up): scale not given: the % may be the effect or the level left
The target in assay [1] is AMP-activated protein kinase, AMPK (Homo sapiens) (UniProt P54646+O43741+P54619+Q9UGJ0+Q9Y478+Q13131+Q9UGI9). The assay is described as follows: Inhibition of human AMPK assessed as enzyme activity at 1 uM using 33P ATP by radioactive filter binding assay. It is filed as protein-complex assay.
Assay [2] has as its target Fibroblast growth factor receptor 1 (Homo sapiens) (UniProt P11362). The assay is described as follows: Inhibition of human FGFR1 (400 to 820 residues) assessed as enzyme activity at 1 uM using 33P ATP by radioactive filter binding assay.
The target of assay [3] is Dual specificity mitogen-activated protein kinase kinase 1 (Homo sapiens) (UniProt Q02750). The experiment in a line: Inhibition of human MKK1 (2 to 393 residues) assessed as enzyme activity at 1 uM using 33P ATP by radioactive filter binding assay.
Assay [4] concerns the target Tyrosine-protein kinase BTK (Homo sapiens) (UniProt Q06187). The assay is described as follows: Inhibition of human BTK (2 to 659 residues) assessed as enzyme activity at 1 uM using 33P ATP by radioactive filter binding assay.
In assay [5] the target is MAP/microtubule affinity-regulating kinase 3 (Homo sapiens) (UniProt P27448). The assay is described as follows: Inhibition of human MARK3 (2 to 729 residues) assessed as enzyme activity at 1 uM using 33P ATP by radioactive filter binding assay.
Sequence of MAP/microtubule affinity-regulating kinase 3 (Homo sapiens) (P27448 whole entry, looked up, the tested form may be a part): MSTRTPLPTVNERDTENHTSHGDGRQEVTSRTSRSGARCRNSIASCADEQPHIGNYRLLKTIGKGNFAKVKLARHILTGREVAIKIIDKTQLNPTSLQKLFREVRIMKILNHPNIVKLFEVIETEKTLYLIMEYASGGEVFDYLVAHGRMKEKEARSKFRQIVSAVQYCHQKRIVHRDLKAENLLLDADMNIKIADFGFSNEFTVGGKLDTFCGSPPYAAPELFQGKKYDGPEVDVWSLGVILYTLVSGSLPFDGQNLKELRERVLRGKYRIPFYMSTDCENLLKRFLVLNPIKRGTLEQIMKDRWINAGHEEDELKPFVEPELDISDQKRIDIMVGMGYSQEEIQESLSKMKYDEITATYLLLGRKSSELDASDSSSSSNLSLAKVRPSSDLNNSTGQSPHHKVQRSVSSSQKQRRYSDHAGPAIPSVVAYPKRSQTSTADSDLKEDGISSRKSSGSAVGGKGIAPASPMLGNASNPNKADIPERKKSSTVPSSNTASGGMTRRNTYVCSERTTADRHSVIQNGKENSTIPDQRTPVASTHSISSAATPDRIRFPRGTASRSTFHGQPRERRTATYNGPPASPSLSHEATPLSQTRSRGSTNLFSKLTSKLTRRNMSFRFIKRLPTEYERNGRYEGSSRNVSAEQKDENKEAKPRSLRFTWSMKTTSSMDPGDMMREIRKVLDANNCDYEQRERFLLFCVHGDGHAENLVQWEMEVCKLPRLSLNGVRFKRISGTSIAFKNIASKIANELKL
For assay [6], the target named is T1, Serine/threonine-protein kinase Chk1 (Homo sapiens) (UniProt O14757).
T1 sequence (whole entry): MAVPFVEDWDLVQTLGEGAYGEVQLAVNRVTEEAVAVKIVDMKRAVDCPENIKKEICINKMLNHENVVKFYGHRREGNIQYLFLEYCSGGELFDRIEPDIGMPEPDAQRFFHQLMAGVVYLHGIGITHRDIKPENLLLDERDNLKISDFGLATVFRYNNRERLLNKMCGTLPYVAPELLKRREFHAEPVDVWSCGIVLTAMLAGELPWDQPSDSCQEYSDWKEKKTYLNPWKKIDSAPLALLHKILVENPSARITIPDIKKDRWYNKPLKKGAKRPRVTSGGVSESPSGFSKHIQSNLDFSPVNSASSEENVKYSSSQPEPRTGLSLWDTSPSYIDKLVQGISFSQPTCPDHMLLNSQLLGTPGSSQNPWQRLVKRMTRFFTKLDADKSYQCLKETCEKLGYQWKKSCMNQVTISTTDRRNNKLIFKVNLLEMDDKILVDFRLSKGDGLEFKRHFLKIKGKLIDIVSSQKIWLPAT
The assay is described as follows: Inhibition of human CHK1 (1 to 476 residues) assessed as enzyme activity at 1 uM using 33P ATP by radioactive filter binding assay.

Assay [7] addresses Ribosomal protein S6 kinase beta-1 (Homo sapiens) (UniProt P23443). The experiment in a line: Inhibition of human S6K1 (1 to 421 residues) assessed as enzyme activity at 1 uM using 33P ATP by radioactive filter binding assay.
In assay [8] the target is MAP kinase-activated protein kinase 2 (Homo sapiens) (UniProt P49137). The experiment in a line: Inhibition of human MAPKAPK2 (46 to 400 residues) assessed as enzyme activity at 1 uM using 33P ATP by radioactive filter binding assay.
Sequence of MAP kinase-activated protein kinase 2 (Homo sapiens) (P49137 whole entry, looked up, the tested form may be a part): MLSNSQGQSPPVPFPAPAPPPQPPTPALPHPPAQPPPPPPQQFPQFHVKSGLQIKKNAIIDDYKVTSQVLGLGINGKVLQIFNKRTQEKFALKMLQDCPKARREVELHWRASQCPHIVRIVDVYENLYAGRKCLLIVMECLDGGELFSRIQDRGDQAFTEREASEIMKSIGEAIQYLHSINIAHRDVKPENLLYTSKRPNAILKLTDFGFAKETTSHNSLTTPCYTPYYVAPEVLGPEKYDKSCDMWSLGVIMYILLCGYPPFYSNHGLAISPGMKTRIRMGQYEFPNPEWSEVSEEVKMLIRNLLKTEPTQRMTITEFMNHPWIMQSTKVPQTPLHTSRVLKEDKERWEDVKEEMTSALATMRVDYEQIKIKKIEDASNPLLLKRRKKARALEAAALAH
In assay [9] the target is Maternal embryonic leucine zipper kinase (Homo sapiens) (UniProt Q14680). The experiment in a line: Inhibition of human MELK (2 to 651 residues) assessed as enzyme activity at 1 uM using 33P ATP by radioactive filter binding assay.
For assay [10], the target named is T2, Serine/threonine-protein kinase TBK1 (Homo sapiens) (UniProt Q9UHD2).
T2 sequence (whole entry): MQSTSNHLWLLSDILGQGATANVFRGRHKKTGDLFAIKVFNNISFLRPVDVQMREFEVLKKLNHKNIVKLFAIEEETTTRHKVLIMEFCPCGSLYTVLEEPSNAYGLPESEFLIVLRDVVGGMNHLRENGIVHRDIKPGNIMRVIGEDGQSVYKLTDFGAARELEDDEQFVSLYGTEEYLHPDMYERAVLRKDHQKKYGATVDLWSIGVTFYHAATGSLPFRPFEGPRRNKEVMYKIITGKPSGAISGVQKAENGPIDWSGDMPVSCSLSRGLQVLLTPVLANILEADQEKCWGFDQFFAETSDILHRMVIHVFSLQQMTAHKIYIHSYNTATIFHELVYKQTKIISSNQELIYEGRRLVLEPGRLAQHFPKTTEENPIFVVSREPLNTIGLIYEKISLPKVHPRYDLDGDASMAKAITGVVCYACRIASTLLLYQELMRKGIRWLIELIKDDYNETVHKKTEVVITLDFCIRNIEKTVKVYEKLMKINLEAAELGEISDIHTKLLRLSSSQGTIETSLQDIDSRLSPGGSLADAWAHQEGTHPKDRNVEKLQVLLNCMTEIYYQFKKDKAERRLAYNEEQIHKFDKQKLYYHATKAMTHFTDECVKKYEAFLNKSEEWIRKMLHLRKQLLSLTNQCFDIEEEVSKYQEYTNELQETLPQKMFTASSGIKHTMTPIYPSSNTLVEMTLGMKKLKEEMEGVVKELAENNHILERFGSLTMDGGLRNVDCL
The assay is described as follows: Inhibition of human TBK1 (1 to 729 residues) assessed as enzyme activity at 1 uM using 33P ATP by radioactive filter binding assay.

Assay [11] deals with Ribosomal protein S6 kinase alpha-1 (Homo sapiens) (UniProt Q15418). The assay is described as follows: Inhibition of human MAPKAPK1alpha (1 to 735 residues) assessed as enzyme activity at 1 uM using 33P ATP by radioactive filter binding assay.
Sequence of Ribosomal protein S6 kinase alpha-1 (Homo sapiens) (Q15418 whole entry, the tested form may be a part): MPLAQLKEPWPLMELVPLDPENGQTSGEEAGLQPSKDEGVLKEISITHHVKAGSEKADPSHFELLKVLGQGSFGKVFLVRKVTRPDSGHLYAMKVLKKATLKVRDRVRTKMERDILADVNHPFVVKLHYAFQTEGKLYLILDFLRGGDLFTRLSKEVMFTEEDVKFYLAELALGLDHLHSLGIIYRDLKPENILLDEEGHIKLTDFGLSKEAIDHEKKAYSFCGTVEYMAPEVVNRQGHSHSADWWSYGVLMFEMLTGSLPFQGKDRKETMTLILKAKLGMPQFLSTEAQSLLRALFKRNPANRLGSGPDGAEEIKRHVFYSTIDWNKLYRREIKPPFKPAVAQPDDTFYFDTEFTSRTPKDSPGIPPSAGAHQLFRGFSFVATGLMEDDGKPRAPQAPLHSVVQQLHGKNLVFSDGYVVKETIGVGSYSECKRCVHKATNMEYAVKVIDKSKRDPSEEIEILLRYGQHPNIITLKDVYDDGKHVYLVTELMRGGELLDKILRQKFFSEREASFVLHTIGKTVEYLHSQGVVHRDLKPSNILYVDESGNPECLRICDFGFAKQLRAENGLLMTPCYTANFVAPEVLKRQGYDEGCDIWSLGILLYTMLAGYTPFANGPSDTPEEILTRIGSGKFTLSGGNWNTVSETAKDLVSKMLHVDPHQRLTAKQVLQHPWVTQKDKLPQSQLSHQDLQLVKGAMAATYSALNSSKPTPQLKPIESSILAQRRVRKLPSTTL
For assay [12], the target named is Serine/threonine-protein kinase N2 (Homo sapiens) (UniProt Q16513). The experiment in a line: Inhibition of human PRK2 (501 to 984 residues) assessed as enzyme activity at 1 uM using 33P ATP by radioactive filter binding assay.
Sequence of Serine/threonine-protein kinase N2 (Homo sapiens) (Q16513 whole entry, looked up, the tested form may be a part): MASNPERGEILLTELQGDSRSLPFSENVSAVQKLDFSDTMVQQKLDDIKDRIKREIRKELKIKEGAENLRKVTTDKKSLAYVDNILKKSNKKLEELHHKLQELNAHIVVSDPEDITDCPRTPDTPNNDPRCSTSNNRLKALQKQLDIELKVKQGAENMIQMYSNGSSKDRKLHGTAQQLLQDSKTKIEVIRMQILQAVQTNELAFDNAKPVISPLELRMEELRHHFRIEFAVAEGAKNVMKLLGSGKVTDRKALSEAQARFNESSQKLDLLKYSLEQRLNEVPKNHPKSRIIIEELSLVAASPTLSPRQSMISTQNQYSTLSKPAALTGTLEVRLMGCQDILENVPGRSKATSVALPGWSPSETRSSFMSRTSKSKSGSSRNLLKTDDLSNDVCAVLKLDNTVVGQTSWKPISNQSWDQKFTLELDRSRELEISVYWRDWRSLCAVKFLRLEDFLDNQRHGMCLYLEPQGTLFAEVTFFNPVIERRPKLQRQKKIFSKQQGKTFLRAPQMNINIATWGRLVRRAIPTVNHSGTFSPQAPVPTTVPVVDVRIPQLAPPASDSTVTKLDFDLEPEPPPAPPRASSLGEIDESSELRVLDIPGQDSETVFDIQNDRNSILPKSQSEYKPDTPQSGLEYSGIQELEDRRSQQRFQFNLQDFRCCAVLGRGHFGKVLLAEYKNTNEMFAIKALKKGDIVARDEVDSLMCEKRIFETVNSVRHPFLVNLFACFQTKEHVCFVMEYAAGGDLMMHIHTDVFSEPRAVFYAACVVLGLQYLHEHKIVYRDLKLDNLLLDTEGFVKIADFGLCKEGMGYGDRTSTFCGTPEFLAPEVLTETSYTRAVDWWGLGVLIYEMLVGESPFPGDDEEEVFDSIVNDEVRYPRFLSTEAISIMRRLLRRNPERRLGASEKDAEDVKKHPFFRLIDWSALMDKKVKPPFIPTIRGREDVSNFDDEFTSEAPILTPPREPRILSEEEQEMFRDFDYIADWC

Sequence of Ribosomal protein S6 kinase beta-1 (Homo sapiens) (P23443 whole entry, looked up, the tested form may be a part): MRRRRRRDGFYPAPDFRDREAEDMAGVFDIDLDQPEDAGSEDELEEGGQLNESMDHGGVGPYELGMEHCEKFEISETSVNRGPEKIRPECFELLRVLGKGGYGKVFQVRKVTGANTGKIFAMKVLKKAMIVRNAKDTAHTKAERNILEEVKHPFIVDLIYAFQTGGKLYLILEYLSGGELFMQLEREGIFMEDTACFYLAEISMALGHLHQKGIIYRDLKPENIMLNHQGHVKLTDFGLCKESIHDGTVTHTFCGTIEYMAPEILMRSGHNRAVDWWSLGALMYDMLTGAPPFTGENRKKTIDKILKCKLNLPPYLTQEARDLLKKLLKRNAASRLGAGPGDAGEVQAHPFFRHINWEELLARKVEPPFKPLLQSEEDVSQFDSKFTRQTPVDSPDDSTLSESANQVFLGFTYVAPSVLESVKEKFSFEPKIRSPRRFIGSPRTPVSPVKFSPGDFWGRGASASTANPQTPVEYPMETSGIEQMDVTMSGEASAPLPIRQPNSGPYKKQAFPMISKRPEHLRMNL
Sequence of Tyrosine-protein kinase BTK (Homo sapiens) (Q06187 whole entry, the tested form may be a part): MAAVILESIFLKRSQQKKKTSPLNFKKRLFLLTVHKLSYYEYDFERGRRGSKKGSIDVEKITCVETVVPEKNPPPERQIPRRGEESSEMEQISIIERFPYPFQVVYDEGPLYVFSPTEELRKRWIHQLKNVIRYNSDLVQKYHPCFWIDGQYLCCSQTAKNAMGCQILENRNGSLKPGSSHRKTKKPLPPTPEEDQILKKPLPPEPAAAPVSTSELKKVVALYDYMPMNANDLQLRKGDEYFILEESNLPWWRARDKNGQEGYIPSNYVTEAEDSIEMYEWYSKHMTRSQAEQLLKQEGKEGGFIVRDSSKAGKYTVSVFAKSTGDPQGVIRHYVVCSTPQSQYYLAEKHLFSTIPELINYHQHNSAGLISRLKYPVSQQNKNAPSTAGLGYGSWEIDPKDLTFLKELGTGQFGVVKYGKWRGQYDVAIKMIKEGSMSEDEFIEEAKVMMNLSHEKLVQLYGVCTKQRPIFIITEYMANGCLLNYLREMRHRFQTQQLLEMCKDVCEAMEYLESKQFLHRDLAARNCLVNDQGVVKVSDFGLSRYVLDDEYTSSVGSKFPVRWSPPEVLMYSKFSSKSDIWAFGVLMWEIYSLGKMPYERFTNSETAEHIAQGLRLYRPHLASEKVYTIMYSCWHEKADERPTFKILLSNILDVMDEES
Sequence of Fibroblast growth factor receptor 1 (Homo sapiens) (P11362 22-822 limits assumed): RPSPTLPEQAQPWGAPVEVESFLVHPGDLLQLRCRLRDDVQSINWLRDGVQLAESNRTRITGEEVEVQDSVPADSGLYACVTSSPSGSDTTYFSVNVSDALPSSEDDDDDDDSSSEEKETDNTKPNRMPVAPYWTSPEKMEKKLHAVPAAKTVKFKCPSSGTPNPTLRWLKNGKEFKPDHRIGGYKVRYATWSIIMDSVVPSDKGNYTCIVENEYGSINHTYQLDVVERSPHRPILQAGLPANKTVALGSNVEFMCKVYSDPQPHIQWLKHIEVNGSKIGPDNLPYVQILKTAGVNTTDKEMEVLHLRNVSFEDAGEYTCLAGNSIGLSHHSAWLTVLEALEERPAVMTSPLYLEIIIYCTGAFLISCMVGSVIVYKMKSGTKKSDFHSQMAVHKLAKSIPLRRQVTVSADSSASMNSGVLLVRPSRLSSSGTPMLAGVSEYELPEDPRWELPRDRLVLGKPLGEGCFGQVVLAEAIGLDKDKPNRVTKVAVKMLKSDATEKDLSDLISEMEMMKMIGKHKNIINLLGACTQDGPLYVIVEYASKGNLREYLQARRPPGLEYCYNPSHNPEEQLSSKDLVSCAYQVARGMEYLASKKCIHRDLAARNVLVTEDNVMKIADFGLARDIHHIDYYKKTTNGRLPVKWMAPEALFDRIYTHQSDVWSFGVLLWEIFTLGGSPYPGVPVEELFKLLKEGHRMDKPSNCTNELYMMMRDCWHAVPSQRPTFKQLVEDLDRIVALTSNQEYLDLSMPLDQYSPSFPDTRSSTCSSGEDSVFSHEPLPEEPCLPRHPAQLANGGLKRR

Take `CCCCc1cc(-c2c[nH]c3ncc(-c4cnn(C5CCNCC5)c4)cc23)nc(N)n1`: the Activity in assay [1] was -69%; in assay [2], -80%; in assay [3] it was -82%; in assay [4], -28%; in assay [5] it was -95%; in assay [6] it was -79%. Also, the Activity was -84% in [7]; -23% in [8]; -85% in assay [9]; -93% in assay [10]; -88% in assay [11]; -94% in assay [12].

As to `Nc1nccc(-c2c[nH]c3ncccc23)n1` [MERIOLIN 1], the Activity in assay [1] is -11%; in assay [2], -8%; in assay [3] it was -67%; in assay [4], -13%; in assay [5], -59%; in assay [6], -6%. For the same compound, the Activity in assay [7] is -71%; in assay [8], -8%; in [9], -64%; in assay [10], -17%; in assay [11], -82%; in assay [12] it was -73%.

As to `CCCCc1cc(-c2c[nH]c3ncccc23)nc(N)n1`, the Activity in [1] was -6%; in [2], 3%; in assay [3] it was -21%; in assay [5], -58%; in assay [6], -2%; in assay [7] it was -77%. In addition, the Activity in [8] was 13%; in assay [9], -89%; in [10] it was -37%; in assay [11], -56%; in assay [12], -63%.

With `CCc1cc(-c2c[nH]c3ncc(-c4cnn(C5CCNCC5)c4)cc23)nc(N)n1`, the Activity was -54% in assay [1]; -79% in [2]; -77% in [3]; -31% in assay [4]; -89% in [5]; -89% in [6]. Also, the Activity in assay [7] is -66%; in assay [8], -3%; in [9] it was -81%; in assay [10], -65%; in [11], -86%; in [12], -86%.
